Source: ChEMBL document CHEMBL1201862, “PubChem BioAssay data set” (2004)
Activity calls are given as the source filed them.

Experiments:
[1] = inhibitors of SNCA 5'UTR-driven reporter translation, confirmation, H4 neuroglioma cells, luminescence (AID 1988); format: functional, cell-based
[2] = inhibitors of firefly luciferase expression or activity, dose response, H4 neuroglioma cells, luminescence (AID 1990); format: functional, cell-based
[3] = Luminescence Cell-Based Dose Response HTS to Identify Inhibitors of 5'UTR Stem-Loop Driven Prion Protein mRNA Translation in H4 Neuroglioblastoma Cells. [Related pubchem assays: 1827 (Project Summary), 1813 (Primary HTS)]; format: functional
cells [4] = format: functional, cell-based
cells [5] = format: functional, cell-based; remark: listed apart in the source
[6] = target: T1, Calpain-2 catalytic subunit (Sus scrofa, UniProt P43367); test: pig calpain II inhibitor potency, dose response, biochemical, fluorogenic peptide substrate (AID 1420); format: functional
T1 sequence (P43367 whole entry): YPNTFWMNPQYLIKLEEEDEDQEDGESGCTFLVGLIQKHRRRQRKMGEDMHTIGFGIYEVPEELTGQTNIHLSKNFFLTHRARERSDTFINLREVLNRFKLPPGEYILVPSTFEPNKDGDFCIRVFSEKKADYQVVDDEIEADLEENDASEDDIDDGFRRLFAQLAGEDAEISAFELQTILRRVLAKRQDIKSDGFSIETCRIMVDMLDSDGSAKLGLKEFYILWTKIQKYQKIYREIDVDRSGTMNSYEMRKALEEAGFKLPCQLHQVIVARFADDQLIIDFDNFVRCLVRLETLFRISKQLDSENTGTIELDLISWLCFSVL

Vero = test: cells; format: functional; conditions: Chlorocebus sabaeus
[7] = Luminescence Cell-Based Dose Retest to Confirm Inhibitors of Cancer Stem Cells. [Related pubchem assays (depositor defined):AID2717, AID2721]; format: functional; conditions: Homo sapiens
Fatty acid synthase [8] = target: T2, Fatty acid synthase (Homo sapiens, UniProt P49327); test: FAS thioesterase domain inhibitors, dose response, biochemical, kinetic fluorescence intensity (AID 624326); format: functional;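 note: rate of fluorescence rise from hydrolysis of a fluorogenic O-methyl fluorescein ester substrate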
T2 sequence (P49327 whole entry, the tested form may be a part): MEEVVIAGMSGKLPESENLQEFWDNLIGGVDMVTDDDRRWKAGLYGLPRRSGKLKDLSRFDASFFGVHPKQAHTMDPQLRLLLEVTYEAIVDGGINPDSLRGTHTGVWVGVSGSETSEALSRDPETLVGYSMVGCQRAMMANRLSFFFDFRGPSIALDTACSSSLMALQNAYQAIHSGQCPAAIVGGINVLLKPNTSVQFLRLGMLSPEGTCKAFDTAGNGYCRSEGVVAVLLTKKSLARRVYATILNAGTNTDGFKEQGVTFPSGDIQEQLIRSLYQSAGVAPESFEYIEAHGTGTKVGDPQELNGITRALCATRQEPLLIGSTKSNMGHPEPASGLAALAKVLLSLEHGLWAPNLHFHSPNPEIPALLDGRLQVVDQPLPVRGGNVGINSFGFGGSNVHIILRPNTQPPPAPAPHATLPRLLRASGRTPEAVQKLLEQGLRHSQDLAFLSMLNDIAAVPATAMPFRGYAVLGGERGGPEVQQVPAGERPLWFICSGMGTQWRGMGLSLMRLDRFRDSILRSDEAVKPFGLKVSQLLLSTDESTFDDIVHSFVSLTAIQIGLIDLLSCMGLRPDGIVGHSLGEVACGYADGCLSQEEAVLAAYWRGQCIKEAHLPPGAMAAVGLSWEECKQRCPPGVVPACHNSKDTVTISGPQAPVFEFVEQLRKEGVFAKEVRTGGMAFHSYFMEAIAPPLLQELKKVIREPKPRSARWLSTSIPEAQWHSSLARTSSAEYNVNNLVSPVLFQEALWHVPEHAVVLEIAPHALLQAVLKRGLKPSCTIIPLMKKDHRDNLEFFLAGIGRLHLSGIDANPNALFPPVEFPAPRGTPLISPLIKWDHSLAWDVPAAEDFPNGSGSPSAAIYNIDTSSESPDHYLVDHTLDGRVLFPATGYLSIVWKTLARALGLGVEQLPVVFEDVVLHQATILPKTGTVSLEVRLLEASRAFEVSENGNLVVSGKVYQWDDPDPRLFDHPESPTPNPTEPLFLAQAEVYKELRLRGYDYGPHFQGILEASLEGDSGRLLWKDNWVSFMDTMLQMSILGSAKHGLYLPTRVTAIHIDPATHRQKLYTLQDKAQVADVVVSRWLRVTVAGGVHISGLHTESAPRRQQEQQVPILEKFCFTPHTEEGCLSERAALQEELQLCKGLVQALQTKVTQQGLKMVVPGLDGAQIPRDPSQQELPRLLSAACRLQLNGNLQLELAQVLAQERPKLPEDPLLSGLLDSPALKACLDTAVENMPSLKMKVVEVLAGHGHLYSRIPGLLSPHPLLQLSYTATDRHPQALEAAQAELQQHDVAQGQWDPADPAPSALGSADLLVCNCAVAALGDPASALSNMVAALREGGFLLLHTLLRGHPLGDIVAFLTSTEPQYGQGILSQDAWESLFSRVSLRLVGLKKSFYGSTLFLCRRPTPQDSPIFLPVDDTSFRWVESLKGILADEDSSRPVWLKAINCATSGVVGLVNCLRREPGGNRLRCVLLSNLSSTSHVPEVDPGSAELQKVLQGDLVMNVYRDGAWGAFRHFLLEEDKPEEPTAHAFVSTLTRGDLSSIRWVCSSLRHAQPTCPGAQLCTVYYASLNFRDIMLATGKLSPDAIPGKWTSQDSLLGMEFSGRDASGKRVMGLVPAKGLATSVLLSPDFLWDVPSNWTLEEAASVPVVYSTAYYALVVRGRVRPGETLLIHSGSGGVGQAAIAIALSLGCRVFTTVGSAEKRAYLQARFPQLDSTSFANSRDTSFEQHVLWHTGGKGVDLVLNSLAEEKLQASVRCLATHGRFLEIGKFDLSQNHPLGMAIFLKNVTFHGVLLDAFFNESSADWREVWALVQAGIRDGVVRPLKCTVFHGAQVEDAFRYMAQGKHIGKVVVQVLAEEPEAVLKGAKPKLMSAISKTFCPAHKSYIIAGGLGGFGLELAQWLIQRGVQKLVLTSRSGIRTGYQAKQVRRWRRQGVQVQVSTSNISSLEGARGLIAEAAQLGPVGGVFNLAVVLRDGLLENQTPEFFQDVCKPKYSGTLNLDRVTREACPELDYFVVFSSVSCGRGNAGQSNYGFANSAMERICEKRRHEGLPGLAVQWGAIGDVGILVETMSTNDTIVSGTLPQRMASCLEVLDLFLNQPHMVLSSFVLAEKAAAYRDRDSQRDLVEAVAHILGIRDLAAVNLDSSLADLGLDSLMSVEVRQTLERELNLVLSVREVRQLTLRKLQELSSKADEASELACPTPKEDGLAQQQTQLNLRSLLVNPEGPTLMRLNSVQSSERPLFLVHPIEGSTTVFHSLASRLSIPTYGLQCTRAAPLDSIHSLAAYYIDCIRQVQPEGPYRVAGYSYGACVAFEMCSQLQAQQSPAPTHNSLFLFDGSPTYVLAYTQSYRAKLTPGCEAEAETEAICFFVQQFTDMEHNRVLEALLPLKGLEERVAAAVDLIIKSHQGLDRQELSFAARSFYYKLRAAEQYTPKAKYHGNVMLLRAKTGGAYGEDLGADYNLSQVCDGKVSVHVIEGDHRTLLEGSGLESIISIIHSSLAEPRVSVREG

Fatty acid synthase [9] = target: T2, Fatty acid synthase; test: FAS thioesterase domain inhibitors, dose response, biochemical, endpoint fluorescence intensity, uHTS hits (AID 624327); format: functional;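 note: fluorescence from hydrolysis of an O-methyl fluorescein acyl ester substrate by the enzyme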
[10] = Luminescence Cell-Based Dose Response HTS to Identify Activators of Luciferase Translation or Activity in H4 […] Cells. [Related pubchem assays: 1829 (Project Summary), 1814 (Primary HTS)]; format: functional
H4 = test: Luminescence Cell-Based Dose Response HTS to Identify Activators of 5'UTR Stem-Loop Driven Prion Protein mRNA Translation in H4 Neuroglioblastoma Cells. [Related pubchem assays: 1829 (Project Summary), 1814 (Primary HTS)]; format: functional; conditions: Homo sapiens
BJ [11] = test: cytotoxicity toward BJ-TERT fibroblasts, dose response, cell-based, RAS-independent, luminescence (AID 1933); format: functional; conditions: Homo sapiens
[12] = cytotoxicity toward DRD oncogenic fibroblasts, dose response, cell-based, non-viral oncogenic, luminescence (AID 1934); format: functional; conditions: Homo sapiens
BJ [13] = test: cells; format: functional, cell-based; conditions: Homo sapiens
BJ [14] = test: cytotoxicity toward BJ-TERT-LT-ST fibroblasts, dose response, cell-based, RAS-independent, luminescence (AID 1935); format: functional; conditions: Homo sapiens;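 note: BJ fibroblasts immortalized with TERT plus LT and ST oncogenes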
[15] = HEp-2 cell cytotoxicity, dose response, cytotoxicity control for RSV inhibitor project, HTS (AID 2410); format: functional; conditions: human respiratory syncytial virus
Cytochrome P450 1A2 = target: T3, Cytochrome P450 1A2 (Homo sapiens, UniProt P05177);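 note: PubChem cytochrome P450 panel assay, CYP1A2 panel member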
T3 sequence (P05177 whole entry): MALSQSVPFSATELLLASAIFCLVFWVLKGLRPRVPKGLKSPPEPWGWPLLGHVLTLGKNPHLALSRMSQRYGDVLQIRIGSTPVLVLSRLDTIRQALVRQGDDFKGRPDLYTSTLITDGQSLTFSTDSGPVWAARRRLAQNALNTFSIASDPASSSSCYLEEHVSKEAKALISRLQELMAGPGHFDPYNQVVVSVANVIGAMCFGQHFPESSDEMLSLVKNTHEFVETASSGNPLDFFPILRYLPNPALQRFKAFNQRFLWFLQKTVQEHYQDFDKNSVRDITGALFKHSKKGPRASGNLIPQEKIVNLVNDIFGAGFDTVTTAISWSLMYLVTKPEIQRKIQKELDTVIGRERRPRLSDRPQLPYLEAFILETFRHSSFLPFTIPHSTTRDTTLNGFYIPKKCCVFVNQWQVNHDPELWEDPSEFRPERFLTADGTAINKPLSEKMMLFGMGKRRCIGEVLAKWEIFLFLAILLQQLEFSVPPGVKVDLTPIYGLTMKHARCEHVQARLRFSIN

[16] = HepG2 cell cytotoxicity, dose response, cytotoxicity control for Shn3 inhibitor project, CellTiter-Glo, cherry-picked (AID 624134); format: functional, cell-based
[17] = Shn3 3'UTR reporter inhibitors, dose response, cell-based, Clone20 osteoblasts, firefly luciferase, cherry-picked (AID 624132); format: functional;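 note: firefly luciferase luminescence from reporter carrying the Shn3 3'UTR in osteoblasts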
[18] = control 3'UTR Renilla luciferase suppression, dose response, counter-screen for Shn3 inhibitor project, cell-based, Clone20-Shn3RL, cherry-picked (AID 624133); format: functional
Paired box protein Pax-8 = Paired box protein Pax-8 (Homo sapiens, UniProt Q06710); test: inhibitors of PAX8-driven TPO luciferase reporter, dose response, RMG-I cells, cherry-pick (AID 687027); format: functional, cell-based;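 note: luciferase reporter driven by Pax8 target thyroperoxidase promoter measured by SteadyGlo luminescence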
Sequence of Paired box protein Pax-8 (Q06710 whole entry): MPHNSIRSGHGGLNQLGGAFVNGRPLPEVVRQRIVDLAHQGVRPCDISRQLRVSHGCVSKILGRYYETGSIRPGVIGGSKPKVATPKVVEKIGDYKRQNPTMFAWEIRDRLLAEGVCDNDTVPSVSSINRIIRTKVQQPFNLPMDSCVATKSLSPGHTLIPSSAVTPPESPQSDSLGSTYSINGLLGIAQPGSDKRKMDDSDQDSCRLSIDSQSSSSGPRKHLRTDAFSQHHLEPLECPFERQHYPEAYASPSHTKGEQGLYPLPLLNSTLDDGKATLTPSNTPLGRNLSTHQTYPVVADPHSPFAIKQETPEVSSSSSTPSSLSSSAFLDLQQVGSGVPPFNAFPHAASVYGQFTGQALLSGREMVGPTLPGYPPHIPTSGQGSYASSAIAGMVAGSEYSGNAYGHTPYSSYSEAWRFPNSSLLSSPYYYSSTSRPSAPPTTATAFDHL

INS1 = test: beta cell apoptosis inhibitors, cytokine rescue, dose response, luminescence, retest (AID 449756); format: functional, cell-based; conditions: Rattus norvegicus;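 note: cell death triggered by IL-1 beta plus TNF-alpha plus IFN-gamma mixture; protective hits raise ATP signal compared with cytokine alone wells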
[19] = P. falciparum Dd2 growth inhibitors, dose response, SYBR Green, cherry-picked samples (AID 1159567); format: functional, cell-based

O=C(Nc1ccccc1Cl)N1CCN(c2ccc3nnc(-c4ccc(F)cc4)n3n2)CC1
EC50 [1]: > 120 µM (not active)
EC50 [2]: 13.4 µM (active)
EC50 [3]: 15.2 µM (active)

COc1ccc(N2CCN(C(=O)COc3ccc4c(C)c(C)c(=O)oc4c3C)CC2)cc1
EC50 (cells [4]): > 350 µM (not active)
EC50 (cells [5]): > 350 µM (not active)

Cc1ccccc1NC(=O)Cn1c(=O)n(Cc2ccccc2)c(=O)c2c(C)c(C)sc21
IC50 [6]: 15 µM (not active)

Cc1c(C(=O)N2CCOCC2)sc(NC(=O)CCl)c1C#N
CC50 (Vero): 22.3 µM (active)

Cc1cc(C(=O)Nc2ccc3c(c2)OCCO3)ccc1[N+](=O)[O-]
EC50 [3]: 13.7 µM (active)

COc1cc(-c2noc(C)c2C#Cc2ccccn2)cc(OC)c1OC
EC50 [1]: 0.25 µM (active)
EC50 [2]: 9.32 µM (active)
AC50 [7]: 0.394 µM (active)
EC50 [3]: > 120 µM (not active)

CN(C(=O)COC(=O)c1cc([N+](=O)[O-])ccc1Cl)c1ccccc1
IC50 (Fatty acid synthase [8]): 7 µM (active)
IC50 (Fatty acid synthase [9]): 9.59 µM (active)

CCn1cnc2c1c(=O)n(CC(=O)Nc1ccc3c(c1)OC(F)(F)O3)c(=O)n2Cc1ccccc1
IC50 [6]: < 0.4 µM (not active)

COc1ccc2c(c1)CCc1cc(C(=O)N3CCN(c4ccc(N5CCOCC5)nn4)CC3)sc1-2
EC50 [1]: > 120 µM (not active)
EC50 [2]: 13.6 µM (active)
EC50 [3]: > 120 µM (not active)

COc1ccc(-c2cc3nc(C)c(CCC(=O)NC(C)CCc4ccco4)c(C)n3n2)c(OC)c1 (centres undefined)
EC50 [1]: > 120 µM (not active)
EC50 [2]: > 120 µM (not active)
EC50 [3]: > 120 µM (not active)

O=C(/C=C/c1cc([N+](=O)[O-])ccc1OC(F)F)NCc1ccc(F)cc1
IC50 (Fatty acid synthase [8]): 0.999 µM (active)
IC50 (Fatty acid synthase [9]): 1.33 µM (active)

O=C(Nc1cnc2sccn2c1=O)c1ccccc1Cl
EC50 [10]: 0.199 µM (active)
EC50 (H4): > 120 µM (not active)

CC(C)C[C@H](NC(=O)c1[nH]cnc1C(=O)NCCCCCNC(=O)OC(C)(C)C)C(=O)OC(C)(C)C
IC50 [6]: 26.6 µM (not active)

O=C(O)c1cccnc1SCc1ccccc1Cl
EC50 (cells [4]): > 350 µM (not active)
EC50 (cells [5]): > 350 µM (not active)

O=C(CCNC(=O)c1ccc([N+](=O)[O-])cc1)NCCC1=CCCCC1
IC50 (Fatty acid synthase [8]): 3.4 µM (active)
IC50 (Fatty acid synthase [9]): 3.75 µM (active)

CC(C)Cn1c(N)c(C(=O)COC(=O)c2ccc(Cl)cc2)c(=O)n(C)c1=O
IC50 [6]: 2.21 µM (active)

Cc1ccccc1NC(=O)CN(C)S(=O)(=O)c1ccc(-c2ccc(O)nn2)s1
EC50 (cells [4]): > 350 µM (not active)
EC50 (cells [5]): > 350 µM (not active)

COc1ccc(CCNc2nncc(O)n2)cc1OC
EC50 (cells [4]): > 350 µM (not active)
EC50 (cells [5]): > 350 µM (not active)

c1ccc(OCc2nc(-c3ccncc3)no2)cc1
EC50 (cells [4]): > 350 µM (not active)
EC50 (cells [5]): > 350 µM (not active)

COc1ccccc1NC(=O)COC(=O)C12CC3CC(CC(Cl)(C3)C1)C2
IC50 [6]: 13 µM (not active)

CCCCCCCC1CC(=O)C=C(C)C1C(=O)OCC (centres undefined)
EC50 (cells [4]): > 350 µM (not active)
EC50 (cells [5]): > 350 µM (not active)

O=C(NCc1ccc2c(c1)OCO2)c1ccc2c(c1)N(Cc1c(F)cccc1Cl)C(=O)CS2
IC50 (Fatty acid synthase [8]): 6.15 µM (active)
IC50 (Fatty acid synthase [9]): 10.3 µM (active)

Cc1ccc(C2=NS(=O)(=O)N(C)C(C(=O)NC3CCCC3)=C2)cc1
EC50 (cells [4]): > 350 µM (not active)
EC50 (cells [5]): > 350 µM (not active)

COC(=O)c1c(C)n(Cc2ccccc2)c2ccc(O)cc12
EC50 [1]: > 120 µM (not active)
EC50 [2]: > 120 µM (not active)
EC50 [3]: > 120 µM (not active)

CCN(CC)c1ccc(C(=O)NNC(=O)CCl)cc1
IC50 [6]: 9.84 µM (active)

CCCn1c(SCC(=O)Nc2ccccc2OC)nnc1-c1ccco1
EC50 (BJ [11]): 29.2 µM (active)
EC50 [12]: 21.1 µM (active)
EC50 (BJ [13]): 50.9 µM (active)
EC50 (BJ [14]): > 150 µM (inconclusive)

CC(C)N(C(=O)COC(=O)c1ccc(O)cc1)C(C)C
IC50 [6]: 18.7 µM (not active)

Cc1ccc(N(CCCCN2C(=O)c3ccccc3C2=O)C(=O)c2ccc(Cl)s2)cc1
IC50 [6]: 2.83 µM (not active)
CC50 [15]: 24.1 µM (active)

CCC1=Nc2cc(C(=O)NCCN3CCOCC3)ccc2Sc2ccc(Br)cc21
EC50 (BJ [11]): > 150 µM (not active)
EC50 [12]: > 150 µM (not active)
EC50 (BJ [13]): > 150 µM (not active)
EC50 (BJ [14]): > 150 µM (not active)

O=C(O)c1cccc(N2CCCC2=O)c1
AC50 (Cytochrome P450 1A2): 14.1 µM (inconclusive)
EC50 (cells [4]): > 350 µM (not active)
EC50 (cells [5]): > 350 µM (not active)

CCOC(=O)c1c(NC(=O)CN2C(=O)NC3(CCC(C)CC3)C2=O)sc(C)c1-c1ccc(C)cc1 (centres undefined)
EC50 (cells [4]): > 350 µM (not active)
EC50 (cells [5]): 49.6 µM (active)

c1coc(-c2nnc3n2C2(CCCC2)Cc2ccccc2-3)c1
EC50 [1]: > 120 µM (not active)
EC50 [2]: > 120 µM (not active)
EC50 [3]: > 120 µM (not active)

Nc1ccccc1Sc1ccc(C(F)(F)F)cc1[N+](=O)[O-]
IC50 [6]: 2.55 µM (active)

O=C1CC(c2ccccc2)Sc2nc3ccccc3n21 (centres undefined)
EC50 [10]: 15.4 µM (active)
EC50 (H4): 15.4 µM (active)

CC(=O)c1ccc(NC(=O)C(C)OC(=O)/C=C/c2ccco2)cc1 (centres undefined)
AC50 [16]: > 70 µM (inactive)
AC50 [17]: 9.12 µM (active)
AC50 [18]: 15.3 µM (active)

C=C1CC(COc2ccc3c(C)c(Cl)c(=O)oc3c2)(c2ccccc2)OC1=O (centres undefined)
AC50 [16]: 13.2 µM (active)
IC50 (Fatty acid synthase [8]): 12 µM (active)
IC50 (Fatty acid synthase [9]): 10.5 µM (active)
AC50 [17]: 4.82 µM (active)
AC50 (Paired box protein Pax-8): 5.9 µM (active)
AC50 [18]: 9.25 µM (active)

CCOC(=O)/C(=C/c1ccc(OC(F)F)cc1)C1=Nn2c(nnc2-c2ccc(Cl)cc2)SC1
CC50 (Vero): 7.48 µM (active)

O=C(CN1C(=O)c2ccc([N+](=O)[O-])cc2C1=O)NCCC1=CCCCC1
IC50 (Fatty acid synthase [8]): 15.4 µM (active)
IC50 (Fatty acid synthase [9]): 20.9 µM (inactive)

Nc1nc(N)c2cc(CNc3ccc(Cl)c(Cl)c3)ccc2n1
AC50 [16]: 1.21 µM (active)
AC50 [17]: 0.956 µM (active)
AC50 [18]: 3.34 µM (active)

C/N=C1/c2cc3cc(OC)ccc3n2CCN1Cc1ccccc1
AC50 [16]: 45.4 µM (active)

COC(=O)c1cc(C(=O)OCC(=O)NC2CCCCCCC2)cc([N+](=O)[O-])c1
IC50 (Fatty acid synthase [8]): 8 µM (active)
IC50 (Fatty acid synthase [9]): 7.09 µM (active)

Cc1ccc(-c2[nH]ncc2/C=N/n2c(COc3ccccc3C)nc3ccccc3c2=O)cc1
IC50 [6]: 28 µM (not active)
AC50 (INS1): 6.28 µM (active)

O=[N+]([O-])c1cccc(/C=N\N=C2c3ccccc3-c3ccccc32)c1O
IC50 [6]: < 0.4 µM (not active)

O=C(c1ccccn1)N1CC[C@H]2[C@H](CO)Nc3ccc(-c4ccccc4)cc3[C@H]21
AC50 [19]: 12.4 µM (active)

C[C@H]1CN([C@@H](C)CO)C(=O)c2ccccc2-c2ccccc2CO[C@H]1CN(C)Cc1cccc(C(F)(F)F)c1
AC50 [19]: 4.48 µM (active)

COc1ccc2c3c(n(C)c2c1)[C@@H](CO)N(CC1CCCCC1)CC31CCN(C(=O)CN(C)C)CC1
AC50 [19]: 5.49 µM (active)
